{"source": "paper PMC2735258", "about": "(Journal of medicinal chemistry, 2009)", "key": {"Stat3 [1]": {"biological_target": "T1, Stat3 (Homo sapiens, UniProt P40763)", "T1 sequence (P40763 whole entry, species assumed, the tested form may be a part)": "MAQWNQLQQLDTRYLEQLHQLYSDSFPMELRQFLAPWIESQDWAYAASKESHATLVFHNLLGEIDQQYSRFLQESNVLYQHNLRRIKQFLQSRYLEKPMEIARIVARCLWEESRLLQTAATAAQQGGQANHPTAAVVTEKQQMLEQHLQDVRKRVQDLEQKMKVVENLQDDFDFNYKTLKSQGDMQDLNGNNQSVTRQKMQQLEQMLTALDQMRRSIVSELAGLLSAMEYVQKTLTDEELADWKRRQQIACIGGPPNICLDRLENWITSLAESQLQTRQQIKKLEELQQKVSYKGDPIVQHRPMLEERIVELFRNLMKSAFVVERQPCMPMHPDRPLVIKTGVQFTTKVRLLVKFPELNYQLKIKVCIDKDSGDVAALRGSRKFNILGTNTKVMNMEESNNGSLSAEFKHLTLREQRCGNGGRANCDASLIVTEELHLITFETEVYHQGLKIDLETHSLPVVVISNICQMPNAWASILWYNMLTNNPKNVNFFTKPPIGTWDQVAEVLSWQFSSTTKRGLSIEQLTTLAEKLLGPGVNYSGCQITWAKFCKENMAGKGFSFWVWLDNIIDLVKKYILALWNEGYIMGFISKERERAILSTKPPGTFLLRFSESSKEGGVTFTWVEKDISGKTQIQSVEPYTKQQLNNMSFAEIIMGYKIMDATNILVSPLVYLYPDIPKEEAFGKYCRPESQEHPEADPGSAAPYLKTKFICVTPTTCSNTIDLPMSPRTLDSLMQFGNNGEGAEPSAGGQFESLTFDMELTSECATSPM", "assay": "Stat3 SH2 domain affinity, fluorescence polarization", "assay_type": "binding", "details": "for fold weaker / loss in affinity: relative to compound 28; for fold loss in affinity: relative to compound 21"}, "Stat3 [2]": {"biological_target": "T1, Stat3", "details": "cited from earlier work"}, "[3]": {"details": "lead phosphopeptides, ref Coleman et al.[16]"}}, "note": "Where “and” joins values, the source holds several entries; their conditions need not be identical. Identical values can stand only once. Like-named read-outs stand apart in the source and are kept apart here. Square brackets hold non-standard residues; d marks the D form. Ends that are not written are not given here. * marks the point of attachment. pY = N[C@@H](Cc1ccc(OP(=O)(O)O)cc1)C(=O)O; pCinn = not defined here; NHBn = c1ccc(CN*)cc1"}
{"compound": "C[C@H](NC(=O)[C@@H]1Cc2cccc3c2N1C(=O)[C@@H](NC(=O)/C=C/c1ccc(OP(=O)(O)O)cc1)CC3)C(N)=O", "note": "[Compound 32, pCinn-Haic-Ala-NH2]", "values": [{"measurement": "activity / affinity for Stat3 in words", "setting": "Stat3 [1]", "value": "micromolar range"}]}
{"compound": "NC(=O)[C@@H]1Cc2cccc3c2N1C(=O)[C@@H](NC(=O)/C=C/c1ccc(OP(=O)(O)O)cc1)CC3", "note": "[Compound 31, pCinn-Haic-NH2]", "values": [{"measurement": "fold weaker", "setting": "Stat3 [1]; relative to compound 24", "value": 42, "unit": "fold"}, {"measurement": "fold weaker / loss in affinity", "setting": "Stat3 [1]", "value": 150, "unit": "fold"}]}
{"compound": "O=C(O)CCCNC(=O)[C@@H]1Cc2cccc3c2N1C(=O)[C@@H](NC(=O)/C=C/c1ccc(OP(=O)(O)O)cc1)CC3", "note": "[Compound 24, pCinn-Haic-Gaba]", "values": [{"measurement": "fold loss in affinity", "setting": "Stat3 [1]", "value": 5, "unit": "fold"}]}
{"compound": "Ac-Tyr(PO3H2)-Leu-Pro-Gln-NHBn (Ac-[pY]LPQ-NHBn; SMILES CC(=O)N[C@@H](Cc1ccc(OP(=O)(O)O)cc1)C(=O)N[C@@H](CC(C)C)C(=O)N1CCC[C@H]1C(=O)N[C@@H](CCC(N)=O)C(=O)NCc1ccccc1) [Compound 4]", "values": [{"measurement": "IC50", "setting": "Stat3 [2]; [3]", "value": "409 ± 15", "unit": "nM"}]}
{"compound": "NC(=O)CC[C@H](NC(=O)[C@@H]1CC[C@@H]2CC[C@H](NC(=O)/C=C/c3ccc(OP(=O)(O)O)cc3)C(=O)N21)C(=O)NCc1ccccc1", "note": "[Compound 18, pCinn-(3S,6S,9S)-ABN-Gln-NHBn]", "values": [{"measurement": "fold lower affinity", "setting": "Stat3 [1]; relative to Leu-Pro analogue 17", "value": 4, "unit": "fold"}]}
{"compound": "pCinn-Leu-Pro-Gln-NHBn ([pCinn]LPQ-NHBn; reading uncertain; also: printed as pCinn-Leu-Pro-Gln-NHBn) [Compound 17]", "values": [{"measurement": "IC50", "setting": "Stat3 [2]; ref [69]", "value": "138 ± 8", "unit": "nM"}]}
{"compound": "C[S+]([O-])CC[C@H](NC(=O)[C@@H]1Cc2cccc3c2N1C(=O)[C@@H](NC(=O)/C=C/c1ccc(OP(=O)(O)O)cc1)CC3)C(N)=O", "note": "(stereo partly shown) [Compound 34, pCinn-Haic-Met(O)-NH2]", "values": [{"measurement": "fold weaker / loss in affinity", "setting": "Stat3 [1]", "value": "~10", "unit": "fold"}]}
{"compound": "7: XXX-Leu-Pro-Gln-Thr-NH2 with XXX = Ac-pTic; drawing shows XXX only [Compound 7]", "values": [{"measurement": "IC50", "setting": "Stat3 [1]; fluorescence polarization", "value": "> 100000", "unit": "nM"}]}
{"compound": "CS(=O)(=O)CC[C@H](NC(=O)[C@@H]1Cc2cccc3c2N1C(=O)[C@@H](NC(=O)/C=C/c1ccc(OP(=O)(O)O)cc1)CC3)C(N)=O", "note": "[Compound 35, pCinn-Haic-Met(O2)-NH2]", "values": [{"measurement": "fold weaker / loss in affinity", "setting": "Stat3 [1]", "value": "~10", "unit": "fold"}]}
{"compound": "NC(=O)CC[C@H](NC(=O)[C@@H]1Cc2cccc3c2N1C(=O)[C@@H](NC(=O)/C=C/c1ccc(OP(=O)(O)O)cc1)CC3)C(=O)O", "note": "[Compound 26, pCinn-Haic-Gln-OH]", "values": [{"measurement": "fold loss in affinity", "setting": "Stat3 [1]", "value": 2, "unit": "fold"}]}
{"compound": "Ac-[pY]LPQ-NH2 [Compound 3]", "values": [{"measurement": "IC50", "setting": "Stat3 [2]; [3]", "value": "856 ± 41", "unit": "nM"}]}
{"compound": "Ac-Tyr(PO3H2)-Leu-Pro-Gln-Thr-NH2 (Ac-[pY]LPQT-NH2; SMILES CC(=O)N[C@@H](Cc1ccc(OP(=O)(O)O)cc1)C(=O)N[C@@H](CC(C)C)C(=O)N1CCC[C@H]1C(=O)N[C@@H](CCC(N)=O)C(=O)N[C@H](C(N)=O)[C@@H](C)O) [Compound 2]", "values": [{"measurement": "IC50", "setting": "Stat3 [2]; [3]", "value": "740 nM and 739 nM"}]}
